This note sets out measurements from ChEMBL document CHEMBL1201862, “PubChem BioAssay data set” (2004).

Some test systems named below: HOP-62; SN12C; NCI-H23; A498; Hs-578T; Malme-3M; HCT-116; BT-549; 786-0; SW-620; NCI-H226; MDA-N; COLO 205; SNB-75; SK-MEL-28; HT-29; NCI-H522; SF-539; M14.
What all share (assay): NCI anticancer screen, dose series, 48 h

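Assay format: 96-well plates, 48-hour exposure. Here, GI50 denotes the concentration required for 50% inhibition of growth.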 The source made the active and inactive calls. Cut-off read from the data, not from the text of the source: active = GI50 up to about 1.1 µM and inactive = higher. Bounds are passed on as bounds.

For the compound `O=c1c2c3c(sc2nc2n1N=C(c1ccc(Cl)cc1)CS2)CCCC3`, the GI50 in the experiment with HOP-62, with SN12C, in the experiment with NCI-H23, with A498, in the experiment on Hs-578T and in the experiment on Malme-3M was > 100 µM (inactive) throughout. Besides, the GI50 in the experiment with HCT-116, in the experiment with BT-549, in the experiment on 786-0, in the experiment on SW-620, in the experiment on NCI-H226 and in the experiment with MDA-N was > 100 µM (inactive) throughout. Besides, the GI50 with COLO 205, with SNB-75, in the experiment on SK-MEL-28, in the experiment on HT-29, in the experiment with NCI-H522 and in the experiment with SF-539 was > 100 µM (inactive) throughout.
As for `CC(C)OC(=O)C1=C2c3ncccc3C(=O)N2[C@@H](Cl)[C@@H](Cl)[C@@H]1Cl`, the GI50 in the experiment on M14 is > 100 µM (inactive); with HOP-62 it was > 100 µM (inactive); in the experiment on SN12C, 21.2 µM (inactive); in the experiment with NCI-H23, > 100 µM (inactive); with A498, > 100 µM (inactive); in the experiment on Hs-578T, 81.5 µM (inactive). For the same compound, the GI50 was > 100 µM (inactive) with Malme-3M; > 100 µM (inactive) with HCT-116; > 100 µM (inactive) in the experiment on BT-549; 73.8 µM (inactive) in the experiment on 786-0; 34.9 µM (inactive) in the experiment on SW-620; > 100 µM (inactive) in the experiment with NCI-H226. In addition, the GI50 in the experiment with MDA-N is 74.1 µM (inactive); with COLO 205 it was > 100 µM (inactive); in the experiment on SK-MEL-28, > 100 µM (inactive); with HT-29 it was > 100 µM (inactive); in the experiment with NCI-H522, 35.6 µM (inactive); with SF-539, > 100 µM (inactive).
For the compound `COC1/C=C/C(C)C(O)CC(O)/C=C/C(C)C(C(C)C(OC)C(C)CCC(=O)C(C)C(C/C=C/N(C)C=O)OC)OC(=O)/C=C/C=C(\C)CC(OC)CC2=CC(=O)O[C@@H](C(C)C(OC)C1)[C@H]2O` (stereo partly specified), the GI50 in the experiment with M14 was < 0.005 µM (active); in the experiment on HOP-62, 0.00515 µM (active); in the experiment with SN12C, < 0.005 µM (active); with NCI-H23, 0.011 µM (active); with A498 it was < 0.005 µM (active); in the experiment with Hs-578T it was 0.00879 µM (active). Also, the GI50 is < 0.005 µM (active) in the experiment with Malme-3M; < 0.005 µM (active) with HCT-116; 0.0311 µM (active) in the experiment on BT-549; < 0.005 µM (active) in the experiment with 786-0; < 0.005 µM (active) with SW-620; < 0.005 µM (active) with NCI-H226. Moreover, the GI50 in the experiment with MDA-N was < 0.005 µM (active); with COLO 205 it was 0.00513 µM (active); in the experiment with SNB-75, < 0.005 µM (active); in the experiment with SK-MEL-28, 0.00588 µM (active); with HT-29, < 0.005 µM (active); in the experiment on NCI-H522 it was < 0.005 µM (active). Besides, the GI50 with SF-539 was < 0.005 µM (active).
With `CC1(C)OC(=O)N(c2ccccc2)C12C=Cc1cc([N+](=O)[O-])ccc1O2` (stereo unspecified), the GI50 with M14 is 11 µM (inactive); with HOP-62, 32.1 µM (inactive); with SN12C, 56.5 µM (inactive); in the experiment on NCI-H23, 36.2 µM (inactive); in the experiment with A498 it was 32.4 µM (inactive); with Hs-578T, 19.5 µM (inactive). The GI50 in the experiment with HCT-116 was 33.3 µM (inactive); in the experiment on BT-549, 51.6 µM (inactive); in the experiment on 786-0, 77.3 µM (inactive); with SW-620 it was 65.6 µM (inactive); in the experiment with NCI-H226, 44 µM (inactive); with MDA-N it was 22.6 µM (inactive). Also, the GI50 in the experiment on COLO 205 was 45.3 µM (inactive); in the experiment with SNB-75, 43.2 µM (inactive); in the experiment with SK-MEL-28, 83.8 µM (inactive); in the experiment with HT-29, 35.5 µM (inactive); in the experiment with NCI-H522, 25.8 µM (inactive).
In the case of `NC1=NC(NCC2(CO)CCC2)=CC(OCC2(CO)CCC2)N1` (stereo unspecified), the GI50 was > 100 µM (inactive) with M14; > 100 µM (inactive) in the experiment with HOP-62; > 100 µM (inactive) with SN12C; 26.2 µM (inactive) in the experiment on NCI-H23; > 100 µM (inactive) in the experiment with A498; > 100 µM (inactive) in the experiment on Hs-578T. Further, the GI50 in the experiment on Malme-3M, in the experiment on HCT-116, in the experiment with BT-549, in the experiment on 786-0, with SW-620 and with NCI-H226 was > 100 µM (inactive) in each case. Moreover, the GI50 with MDA-N, in the experiment with COLO 205, in the experiment with SNB-75, in the experiment with SK-MEL-28, with HT-29 and with NCI-H522 was > 100 µM (inactive) each time.
`COc1cc(C2SCC(=O)N2c2ccccc2Cl)cc(OC)c1OC` (stereo unspecified): the GI50 with M14, with SN12C, in the experiment on NCI-H23, in the experiment on A498, in the experiment with Hs-578T and with HCT-116 was > 100 µM (inactive) each time. Further, the GI50 is 54 µM (inactive) in the experiment with BT-549; > 100 µM (inactive) in the experiment on 786-0; > 100 µM (inactive) in the experiment on SW-620; > 100 µM (inactive) in the experiment on NCI-H226; 19.4 µM (inactive) in the experiment on MDA-N; > 100 µM (inactive) in the experiment with COLO 205. In addition, the GI50 in the experiment with SK-MEL-28 was > 100 µM (inactive); in the experiment with HT-29, > 100 µM (inactive); in the experiment on NCI-H522 it was 65.8 µM (inactive); in the experiment on SF-539, > 100 µM (inactive).
Take `N/C(=N\c1ccc(Cl)cc1)NS(=O)(=O)c1cc(Cl)c(Oc2ccc([N+](=O)[O-])cc2Cl)c(Cl)c1`: the GI50 was 18.6 µM (inactive) in the experiment with M14; 17.5 µM (inactive) in the experiment on SN12C; 16.8 µM (inactive) in the experiment on NCI-H23; 15.5 µM (inactive) in the experiment on A498; > 100 µM (inactive) in the experiment with Hs-578T; > 100 µM (inactive) with Malme-3M. The GI50 in the experiment on HCT-116 is 16.7 µM (inactive); with BT-549, 17.4 µM (inactive); with 786-0, 18.9 µM (inactive); with SW-620, 20 µM (inactive); in the experiment on NCI-H226 it was 17.1 µM (inactive); in the experiment on MDA-N, 18.2 µM (inactive). Further, the GI50 in the experiment on COLO 205 is 16.1 µM (inactive); in the experiment on SNB-75 it was 17.1 µM (inactive); in the experiment with SK-MEL-28, 16.9 µM (inactive); with HT-29 it was 20.4 µM (inactive); in the experiment with NCI-H522 it was > 100 µM (inactive); with SF-539 it was 16.6 µM (inactive).
Regarding `COc1ccc2cc(NC(=O)Nn3cnnc3)ccc2c1`, the GI50 in the experiment on M14, in the experiment on HOP-62, with NCI-H23, in the experiment with A498, in the experiment on Hs-578T and in the experiment with Malme-3M was > 100 µM (inactive) throughout. Moreover, the GI50 in the experiment on HCT-116, in the experiment on BT-549, in the experiment on 786-0, with SW-620, with NCI-H226 and with MDA-N was > 100 µM (inactive) in each case. Also, the GI50 was > 100 µM (inactive) with COLO 205; 12.7 µM (inactive) in the experiment on SNB-75; > 100 µM (inactive) in the experiment with SK-MEL-28; > 100 µM (inactive) in the experiment on HT-29; > 100 µM (inactive) in the experiment on NCI-H522; > 100 µM (inactive) in the experiment with SF-539.
As for `CN(NC(=O)c1cccs1)C1=NCCN1`, the GI50 in the experiment on M14, with HOP-62, with NCI-H23, in the experiment with A498, in the experiment on Hs-578T and with Malme-3M was > 100 µM (inactive) throughout. The GI50 in the experiment with HCT-116, with BT-549, in the experiment with 786-0, with SW-620, with NCI-H226 and in the experiment with MDA-N was > 100 µM (inactive) each time. Further, the GI50 in the experiment with COLO 205, with SNB-75, in the experiment with SK-MEL-28, in the experiment on HT-29, in the experiment with NCI-H522 and in the experiment on SF-539 was > 100 µM (inactive) each time.
Turning to `CCOP1(=O)OCC2OC(n3cnc4c(N)ncnc43)C(O)C2O1.c1ccccc1` (stereo unspecified), the GI50 in the experiment on M14, in the experiment on HOP-62, with SN12C, with A498, in the experiment on Hs-578T and in the experiment with Malme-3M was > 100 µM (inactive) each time. Further, the GI50 in the experiment with HCT-116, in the experiment with BT-549, with 786-0, in the experiment with SW-620, in the experiment with NCI-H226 and with MDA-N was > 100 µM (inactive) throughout. The GI50 in the experiment with COLO 205, in the experiment with SNB-75, with SK-MEL-28, with HT-29, in the experiment on NCI-H522 and in the experiment on SF-539 was > 100 µM (inactive) in each case.
Regarding `O=C1/C(=C\c2cccc(Oc3ccccc3)c2)SC(c2ccccc2)N1c1ccccc1` (stereo unspecified), the GI50 with M14 was 71.6 µM (inactive); in the experiment with HOP-62, > 100 µM (inactive); in the experiment with SN12C, > 100 µM (inactive); in the experiment on NCI-H23, 92.5 µM (inactive); in the experiment on A498, > 100 µM (inactive); in the experiment on Hs-578T, > 100 µM (inactive). In addition, the GI50 was > 100 µM (inactive) in the experiment with Malme-3M; 20.1 µM (inactive) in the experiment with HCT-116; > 100 µM (inactive) in the experiment on BT-549; > 100 µM (inactive) with 786-0; 12.4 µM (inactive) with SW-620; > 100 µM (inactive) in the experiment on NCI-H226. Also, the GI50 in the experiment with MDA-N was 30.1 µM (inactive); with COLO 205, > 100 µM (inactive); in the experiment on SK-MEL-28 it was 81.1 µM (inactive); in the experiment on HT-29 it was 26.4 µM (inactive); in the experiment on NCI-H522, 17.1 µM (inactive); in the experiment with SF-539, 26.5 µM (inactive).
